Earlier results as cited in patent US20160213673A1, “ENDURANCE FORMULATION AND USE” (priority 2015, published 2016).

What was measured:
[1] = exhausted rats
[2] = test system: arginase
[3] = during the first 15 minutes of exercise
[4] = following 4 mg/kg caffeine consumption
[5] = not given; remark: listed apart in the source
[6] = target: TRVP-1 (Homo sapiens, UniProt Q8NER1)
[7] = test system: UCP3 mRNA expression in skeletal muscle; details: occurred within minutes of capsinoid ingestion
[8] = 3 mg of 9 mg of dihydrocapsiate per day for 28 days
[9] = following capsiate administration

Chain of TRVP-1 (Q8NER1 whole entry): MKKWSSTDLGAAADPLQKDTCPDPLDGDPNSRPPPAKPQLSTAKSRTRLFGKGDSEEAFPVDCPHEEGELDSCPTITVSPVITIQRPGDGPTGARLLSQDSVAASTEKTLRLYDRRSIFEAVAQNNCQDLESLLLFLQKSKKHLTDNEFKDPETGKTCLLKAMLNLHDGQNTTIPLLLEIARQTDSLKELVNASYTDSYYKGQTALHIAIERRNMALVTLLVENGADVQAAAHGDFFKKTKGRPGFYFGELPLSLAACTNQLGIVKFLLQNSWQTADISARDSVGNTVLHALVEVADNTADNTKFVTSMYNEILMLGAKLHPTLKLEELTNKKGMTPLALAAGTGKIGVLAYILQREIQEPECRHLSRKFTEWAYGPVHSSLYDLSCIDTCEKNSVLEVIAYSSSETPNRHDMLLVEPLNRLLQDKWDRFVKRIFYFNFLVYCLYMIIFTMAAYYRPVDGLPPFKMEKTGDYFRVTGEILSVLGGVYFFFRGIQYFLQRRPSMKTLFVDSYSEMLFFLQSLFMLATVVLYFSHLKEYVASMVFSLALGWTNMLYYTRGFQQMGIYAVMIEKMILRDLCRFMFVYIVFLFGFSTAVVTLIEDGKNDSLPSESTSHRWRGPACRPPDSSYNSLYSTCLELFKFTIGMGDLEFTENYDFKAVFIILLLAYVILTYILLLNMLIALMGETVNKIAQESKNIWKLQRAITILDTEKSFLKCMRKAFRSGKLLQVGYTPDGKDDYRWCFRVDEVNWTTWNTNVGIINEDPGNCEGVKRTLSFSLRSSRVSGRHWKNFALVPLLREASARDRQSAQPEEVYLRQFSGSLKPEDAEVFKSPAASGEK

Compound: N=C(N)NCCC[C@H](N)C(=O)O [arginine]
- ammonia toxicity [1]: mitigate ammonia toxicity

Compound: Cn1c(=O)c2c(ncn2C)n(C)c1=O [caffeine]
- arginase activity [2]: inhibits arginase activity
- decrease of glycogen utilization [3]: ≤ 50%
- plasma free fatty acids [4]: greater increase
- respiratory quotient (RQ) [4]: significantly lower

Compound: COc1cc(COC(=O)CCCC/C=C/C(C)C)ccc1O [capsiate]
- ATP cost of twitch force generation (mouse, in vivo): reduced
- twitch force-generating capacity (mouse, in vivo): increased
- oxidative phosphorylation during rest (rest): not affected
- contribution of oxidative phosphorylation to total energy turnover (when exercising): increased
- glycolysis (when exercising): reduction
- residual glycogen in the gastrocnemius muscle ([5]; after 30 min of swimming): higher
- serum free fatty acid concentration ([5]; after 30 min of swimming): tended to be higher
- serum lactic acid concentration ([5]; after 30 min of swimming): significantly lower
- carbohydrate oxidation [5, 9]: reduced
- fat oxidation [5, 9]: significantly higher
- oxygen consumption (aerobic) [5, 9]: significantly higher
- swimming time versus mice without capsiate ([5]; mice): significantly longer
- rates of TRVP-1 activation, capsiate compared with dihydrocapsiate [6]: similar
- persistence of UCP3 mRNA expression in skeletal muscle [7]: 2 h

Compound: NC(=O)NCCC[C@H](N)C(=O)O [citrulline]
- ammonia toxicity [1]: mitigate ammonia toxicity

Compound: COc1cc(COC(=O)CCCCCCC(C)C)ccc1O [dihydrocapsiate]
- rates of TRVP-1 activation, capsiate compared with dihydrocapsiate [6]: similar
- post prandial energy expenditure [8]: significant increase
- respiratory quotient (RQ) versus placebo group [8]: significantly lower
